Bounds are passed on as bounds.

The test system of data set [1] is IFNγ. The data set is described as follows: Sandwich ELISA of IFNγ in medium from confluent MCF-7 cultures. In kind it is cell-based, human. The settings on record: vehicle control virtually undetectable. Here is the method: Immune response activating effects of the DIM analogs are examined with cell-based assays for cytokine and cytokine receptor expression. […] We also used a sensitive sandwich ELISA assay to examine levels of IFNγ in medium from confluent cultures of MCF-7 cells that were treated for up to 3 days. DIM derivatives confirmed to have immune response activating activity in our reporter and ELISA assays are subsequently screened in a whole animal cytokine production and Y. enterocolitica infection studies, as described below in Examples VIII and IX.
Using a sensitive sandwich ELISA assay, we examined levels of IFNγ in medium from confluent cultures of MCF-7 cells that were treated with DIM for up to 3 days. […] Levels of IFNγ in the medium of cultured cells were increased following incubations for 1 and 3 days from virtually undetectable levels in the vehicle treated control to approximately 50±10 pg/mL and 80±30 pg/mL, respectively, for the indole treated cells.
(In an ELISA, binding on a coated surface is turned into a signal by an enzyme label.)

The test system of data set [2] is STAT1. Description: STAT1 phosphorylation (Tyr-701) by Western blot. The data set is classed as cell-based, human. The settings on record: DIM 6 or 24 h, with or without 15 min IFNγ exposure. The source says:
To acsertain the role of GAS element activation in transcriptional activation by DIM, we examined the effect of this indole on downstream events in the GAS signaling pathway. For this purpose, the effects of DIM on phosphorylation of the signal transduction and activator of transcription factor 1 (STAT1), and the binding of the activated STAT1 dimer to the cognate GAS responsive element were examined. Phosphorylation of STAT1 by Janus-activated kinase (JAK) is the first step in IFNγ signaling following binding to IFNGR1. For these studies, cells were pretreated with DIM for 6 or 24 h followed by a 15 min. exposure to IFNγ. STAT1 phosphorylation levels in cell lysates of DIM-treated cells were compared to controls that received IFNγ but had not been treated with DIM. Phosphorylation was measured by Western blot analysis using an antibody specific to STAT1 phosphorylated on Tyr-701 residue.

Data set [3] concerns MCF-7 cells. The data set is described as follows: Cell proliferation over a 4-day treatment period. The data set is classed as cell-based, human. The settings on record: 4-day treatment, heat-treated serum. Here is the method: Functional consequences of the synergistic effects of DIM and IFNγ on gene expression were examined at the level of proliferation rates. Cell proliferation was measured over a 4-day treatment period with treatments with DIM, IFNγ, or both substances, and compared to a DMSO control. With heat-treated serum, IFNγ alone reduced cell proliferation by as much as 70% compared to controls. DIM treatments reduced proliferation by as much as 60%. […] These effects were accompanied by morphological changes characteristic of apoptosis.

Data set [4] concerns MCF-7 cells. Description: Flow cytometry of cell cycling (G1 phase). The settings on record: up to 3 days; control approximately 50% in G1. In kind it is cell-based, human. The source says: Flow cytometry was used to determine the effects of DIM and IFNγ on cell cycling. […] In control groups approximately 50% of the cells were in G1. Treatment with IFNγ alone caused a small progressive increase in G1 blocked cells of up to 10% above the DMSO control, after 3 days.
On the technique in general: A flow cytometer gives signals particle by particle.

For data set [5], the system named is MHC-II. The data set is described as follows: MHC-II expression in MCF-7 cells. In kind it is cell-based, human. The text has this: In an analogous further experiment, we observed no effect of DIM or IFNγ on MHC-II expression in the MCF-7 cells.
Data set [6] deals with HLA-A, HLA-B, HLA-C, β-microtubulin, TAP1 and TAP2. Description: RT-PCR of MHC-I components and transporters in MCF-7 cells. The data set is classed as cell-based, human. The text has this: RT-PCR was used to examine the expression of the four major components of human MHC-I, including HLA-A, HLA-B, HLA-C, and β-microtubulin, as well as two important associated transporters, TAP1 and TAP2. […] As expected, the expressions of these genes were increased 2-8 fold by treatment with IFNγ.

Data set [7] relates to IL-12. Description: Serum IL-12 by ELISA in mice after DIM. The data set is classed as in vivo. The settings on record: 30 μg/kg DIM orally. As to the method:
We firstly investigated the effect of unsubstituted DIM on the production of IL-6, G-CSF, IL-12, TNF-α and IFNγ. A groups of 3 mice was given 30 μg/kg of unsubstituted DIM orally and then sacrificed at 1, 3, 5, 8, and 24 h after drug challenge. Serum was collected, pooled, and assayed for IL-6, G-CSF, IL-12 and TNF-α by ELISA. […] DIM produced an increase in circulating levels of G-CSF and TNF-α with the 3 h time point being maximal. […] DIM also stimulated IL-12 and kinetics were slightly different since the increased levels were sustained for at least 24 h.

The subject of data set [8] is IL-6, G-CSF, IL-12, TNF-α and IFNγ. Description: Serum levels of cytokines in mice. The data set is classed as in vivo.
Data set [9] has as its system Y. enterocolitica WA-314 serotype O:8. The data set is described as follows: Y. enterocolitica infection of BALB/c mice, spleen bacterial numbers. In kind it is in vivo. Here is the method: Female, 6- to 8-week-old BALB/c mice are purchased from Charles River and kept under specific-pathogen-free conditions (positive-pressure cabinet).
Mice are given 30 μg/kg/day of a DIM or one of 24 substituted DIM compounds (Table 1, supra) orally, starting at 1 day prior to infection.
Freshly thawed, plasmid-harboring Y. enterocolitica WA-314 serotype O:8 organisms suspended in 0.1 ml of sterile phosphate-buffered saline (PBS), pH 7.4, are used for intravenous and oral infection as described previously (Autenrieth, et al. 1994. Infect. Immun. 62:2590-2599). The actual number of bacteria administered is determined by plating serial dilutions of the inoculum on Mueller-Hinton agar and counting CFU after an incubation period of 36 h at 26C. For kinetic studies, five mice per group are killed by carbon dioxide asphyxiation on days 1, 3, and 7 postinfection (p.i.) with 5×10^3 bacteria. Spleens are aseptically removed, and single-cell suspensions prepared by using 5 ml of PBS containing 0.1% bovine serum albumin. Duplicates of 0.1 ml of serial dilutions of these preparations are plated on Mueller-Hinton agar. The limit of detectable CFU is 25 (log1025=1.4).
In single end-point studies, bacterial numbers in spleens of treated BALB/c mice 7 days p.i. with 2×10^3 Y. enterocolitica show significant reductions compared with untreated controls.

The nature of data set [10]: Estimated blood concentration of DIM from dietary broccoli. Set-up: species or system human. The settings on record: approximately 12 mg DIM from 200 g broccoli daily, maximum absorption assumed. As to the method: We observed the immune response activating activity of DIM at physiologically relevant concentrations. A person of average weight who consumes 200 g of broccoli daily will obtain approximately 12 mg of DIM. With maximum absorption of DIM, the blood concentration of DIM will reach approximately 10 μM. Therefore, in vivo concentrations of DIM from dietary Brassica vegetables represent the effective levels of DIM in vitro.

Data set [11] relates to DMBA-induced mammary tumorigenesis. The settings on record: repeated oral administrations during promotion stage, rodents; cited from earlier work.

`c1ccc2c(Cc3c[nH]c4ccccc34)c[nH]c2c1` [DIM, 3,3′-Diindolylmethane]: the “Level of IFNγ in the medium of cultured cells” value in [1] (MCF-7, incubation 1 day) is “approximately 50±10 pg/mL”; in data set [1] (MCF-7, incubation 3 days), about 80 ± 30 pg/mL. The “STAT1 phosphorylation (Tyr-701)” value in data set [2] is given as “did not induce STAT1 phosphorylation”. Also, the “Reduction of cell proliferation compared to controls” value in [3] was at most 60%. For the same molecule, in data set [4], the “Increase in G1 blocked cells above the DMSO control” value is reported as “up to 30%”. Moreover, the “Effect on MHC-II expression” value in [5] is recorded as “no effect”. In [6], the “Expression levels of the six genes (MHC-I components, TAP1, TAP2) above vehicle/background” value is given as “not significantly enhanced”. Besides, in data set [7], the “Time for which increased IL-12 levels were sustained” value is given as “at least 24 h”. Also, in data set [8] (intravenous administration), the “Cytokine production, including IFNγ” value was “elevated cytokine production”. In addition, in [8] (oral, 1-24 h after challenge), the “Serum levels of cytokines” value is reported as “stimulated a time-dependent increase in serum levels of cytokines”. Moreover, the “Severity of yersiniae infection” value in data set [9] is recorded as “reduce the severity of yersiniae infection”. The “Blood concentration of DIM” value in data set [10] is “approximately 10 μM”. For the same molecule, the “Inhibition of tumor growth” value in data set [11] is at most 95%.

(Values after patent US20060100264A1, “3,3'-Diindolylmethane immune activating compositions” (priority 2004, published 2006).)
